# Results reported in US20240300972A1, “THIOPHENE-BASED LIPIDS” (Oregon State University, priority 2021, published 2024).
# Assays:
# [1] = system: BALB/c mice; assay: In vivo bioluminescence imaging after administration of Fluc mRNA nanoparticle formulations; set-up: species or system mouse; conditions: for transfection after intramuscular administration: flanks of mice; for luminescent signals detected by in vivo imaging / pattern / origin of luminescence (transfected tissues) / degree of transfection (light flux) in the tested series: intravenous administration; for luminescent signals detected by in vivo imaging / degree of transfection (light flux) in the tested series: mice; for pattern / origin of luminescence (transfected tissues): in vivo and ex vivo organs; for light flux compared to the negative control: normal (50:10:38.5:1.5) and highly PEGylated (50:7:38.5:4.5) formulations
# Description: A nanoparticle formulation including firefly luciferase (Fluc) mRNA was administered to BALB/c mice by intravenous, intramuscular, intravitreal, or subretinal injection. The intravenous injection was performed by tail-vein or retro-orbital injection. Mice that received a dose of nanoparticle formulation were housed until bioluminescence imaging. Bioluminescence imaging is a method to quantify luminescent signals from the subject. Prior to bioluminescence imaging, the mice were sedated with inhalation of isoflurane. The sedated mice received a dose of D-luciferin salt, which is a substrate of firefly luciferase, by intraperitoneal injection at 150 mg/kg 10 minutes prior to bioluminescence imaging. Bioluminescence imaging was performed on the mice with various exposure times ranging from 1 to 300 seconds using IVIS Lumina XRMS from PerkinElmer. To evaluate the protein expression at an organ level, internal organs of a mouse, such as the liver, lungs, kidneys, spleen, lymph nodes, and heart, and external tissues of mouse, such as muscle tissues close to a site of injection, were excised.
# [2] = system: HeLa (human cervical epithelial cells); assay: In vitro transfection efficiency of FLuc mRNA LNPs, ONE-Glo Luciferase Assay; assay type: cell-based; conditions: for dose response of transfection efficiency: 50 vs 200 ng/well; for transfection profile and cytotoxicity: compared to negative control (PBS) and positive control (MC3 LNPs at the same dose)
# Description: (§1) Mammalian cell lines used to measure cytotoxicity and transfection efficiency include HeLa (human cervical epithelial cells), HEK293T/17 (human embryonic kidney cells), HepG2 (human liver epithelial-like cells), and Jurkat E6-1 (human T-lymphocytes). The cells were seeded at 4000 cells/well in a 96-well plate and incubated for 24 hours. The next day, the LNPs of interest were diluted with 1×PBS to 50 ng/ul and administered at predetermined doses to the cells. The cell viability and transfection efficiency were evaluated on the following day (after 24-hour incubation of cells with LNPs). The cell viability was measured with Promega CellTiter-Fluor Cell Viability Assay, and the transfection efficiency was measured with Promega ONE-Glo Luciferase Assay System using Tecan Infinite M200 PRO multimode plate reader instrument. The dose range varied from 50 to 200 ng of nucleic acid per well.
# [3] = system: HepG2 (human liver epithelial-like cells); assay: as above; assay type: cell-based; conditions: HepG2, 200 ng (identical dose)
# Description: as §1
# [4] = system: HEK293T/17 (human embryonic kidney cells); assay: as above; assay type: cell-based; conditions: HEK293T/17, 200 ng (identical dose)
# Description: as §1
Compound,transfection after intramuscular administration [1],luminescent signals detected by in vivo imaging [1],pattern / origin of luminescence (transfected tissues) [1],light flux compared to the negative control ([1]; subretinal administration),dose response of transfection efficiency ([2]; HeLa),"improvement compared to the positive control ([2]; HeLa cell line, 200 ng treatment) [fold]",transfection profile and cytotoxicity ([2]; HeLa),decline compared to the positive control [3] [fold],decline compared to the positive control [4] [fold],"luciferase signal ([1]; subretinal administration, “normal” formulation (1.5% PEG))",degree of transfection (light flux) in the tested series [1],"decrease in transfection efficiency vs positive control ([2]; HeLa, MC3 LNPs at the same dose)"
"6-(3-(dimethylamino)propanoyl)-2-((9Z,12Z)-octadeca-9,12-dienamido)-N-((9Z,12Z)-octadeca-9,12-dienoyl)-N-octadecyl-4,5,6,7-tetrahydrothieno[2,3-c]pyridine-3- [26a]",successful and comparable transfection of local tissues,successful transfection,local transfection,greater significant light flux,greater at 200 ng/well than at 50 ng/well,,,,,,,
"CCCCC/C=C\C/C=C\CCCCCCCC(=O)N(C(=O)CCCCCCC/C=C\C/C=C\CCCCC)c1sc2c(c1C(=O)OCC)CCN(C(=O)CCCN(C)C)C2 [19da, ethyl 6-(4-(dimethylamino)butanoyl)-2-((9Z,12Z)—N-((9Z,12Z)-octadeca-9,12-dienoyl)octadeca-9,12-dienamido)-4,5,6,7-tetrahydrothieno[2,3-c]pyridine-3-carboxylate]",successful and comparable transfection of local tissues,successful transfection,local transfection,greater significant light flux,greater at 200 ng/well than at 50 ng/well,~5,favorable transfection profile and cytotoxicity,3,3,,,
"CCCCC/C=C\C/C=C\CCCCCCCC(=O)Nc1sc2c(c1C(=O)N(CCCCCCCCCCCCCCCCCC)C(=O)CCCCCCC/C=C\C/C=C\CCCCC)CCN(C(=O)CCCN(C)C)C2 [26b, 6-(4-(dimethylamino)butanoyl)-2-((9Z,12Z)-octadeca-9,12-dienamido)-N-((9Z,12Z)-octadeca-9,12-dienoyl)-N-octadecyl-4,5,6,7-tetrahydrothieno[2,3-c]pyridine-3-carboxamide]",,successful transfection,local transfection,greater significant light flux,greater at 200 ng/well than at 50 ng/well,,favorable transfection profile and cytotoxicity,,,not detected,,
"CCCCC/C=C\C/C=C\CCCCCCCC(=O)Nc1sc2c(c1C(=O)NCCCN(C)C)CCN(C(=O)CCCCCCC/C=C\C/C=C\CCCCC)C2 [29d, N-(3-(dimethylamino)propyl)-2-((9Z,12Z)-octadeca-9,12-dienamido)-6-((9Z,12Z)-octadeca-9,12-dienoyl)-4,5,6,7-tetrahydrothieno[2,3-c]pyridine-3-carboxamide]",,successful transfection,spleen and lungs,,inverse dose response,,favorable transfection profile and cytotoxicity,,,,,
"CCCCC/C=C\C/C=C\CCCCCCCCOC(=O)c1c(NC(=O)CCCCCCCCCCCCCCCCC)sc2c1CCNC2 [34a, (9Z,12Z)-octadeca-9,12-dien-1-yl 2-stearamido-4,5,6,7-tetrahydrothieno[2,3-c]pyridine-3-carboxylate]",,successful transfection,liver and spleen,,,,favorable transfection profile and cytotoxicity,,,,highest light flux,
"CCCCC/C=C\C/C=C\CCCCCCCCOC(=O)c1c(NC(=O)CCCCCCC/C=C\C/C=C\CCCCC)sc2c1CCNC2 [34b, (9Z,12Z)-octadeca-9,12-dien-1-yl 2-((9Z,12Z)-octadeca-9,12-dienamido)-4,5,6,7-tetrahydrothieno[2,3-c]pyridine-3-carboxylate]",,successful transfection,,,,,favorable transfection profile and cytotoxicity,,,,highest light flux,
"CCCCC/C=C\C/C=C\CCCCCCCCOC(=O)c1c(NC(=O)CCCCCCC/C=C\C/C=C\CCCCC)sc2c1CCN(C(=O)CCCN(C)C)C2 [35a, (9Z,12Z)-octadeca-9,12-dien-1-yl 6-(4-(dimethylamino)butanoyl)-2-((9Z,12Z)-octadeca-9,12-dienamido)-4,5,6,7-tetrahydrothieno[2,3-c]pyridine-3-carboxylate]",,successful transfection,,,,,favorable transfection profile and cytotoxicity,,,,,up to 4 ×fold
